Results reported in PubChem BioAssay (NCI).
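Five compound concentrations were applied to cells in 96-well plates for 48 hours; endpoints were derived by simple linear interpolation of the resulting dose-response curve. TGI denotes the concentration required for complete inhibition of growth.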

Columns and labels:
Assay in all cases: DTP human tumour cell line panel, 48 h
U251 CNS = tested on: U251 CNS
SNB-19 CNS = tested on: SNB-19 CNS
SK-OV-3 ovarian = tested on: SK-OV-3 ovarian
MCF7 breast = tested on: MCF7 breast
786-0 renal = tested on: 786-0 renal
HL-60(TB) leukemia = tested on: HL-60(TB) leukemia
RXF 393 renal = tested on: RXF 393 renal
IGROV1 ovarian = tested on: IGROV1 ovarian
CCRF-CEM leukemia = tested on: CCRF-CEM leukemia
M14 melanoma = tested on: M14 melanoma

Row | SMILES | TGI (U251 CNS) | TGI (SNB-19 CNS) | TGI (SK-OV-3 ovarian) | TGI (MCF7 breast) | TGI (786-0 renal) | TGI (HL-60(TB) leukemia) | TGI (RXF 393 renal) | TGI (IGROV1 ovarian) | TGI (CCRF-CEM leukemia) | TGI (M14 melanoma)
1 | COCC(C#N)NC1CC(OC2CC(O)(C(=O)CO)Cc3c(O)c4c(c(O)c32)C(=O)c2c(OC)cccc2C4=O)OC(C)C1O (stereo not given) | 0.86 µM | 2.61 µM | 10.6 µM | 0.836 µM | 1.77 µM | 0.432 µM | 0.497 µM | 0.582 µM | 1.69 µM | 0.774 µM
2 | COC(=O)NC(Cc1ccccc1)NC(=O)OC(C)(C)C (stereo not given) | > 100 µM | > 100 µM | > 100 µM | > 100 µM | > 100 µM | > 100 µM | > 100 µM | > 100 µM | > 100 µM | > 100 µM
3 | CSc1nnnc2ccccc12 | > 100 µM | > 100 µM | > 100 µM | > 100 µM | > 100 µM | > 100 µM | > 100 µM | > 100 µM | > 100 µM | > 100 µM
4 | O=C(CC(=O)N1N=C(c2ccccc2)C(N=Nc2ccc(S(=O)(=O)CCOS(=O)(=O)O)cc2)C1=O)Nc1ccc(Cl)cc1 (stereo not given) | > 100 µM | > 100 µM | > 100 µM | > 100 µM | > 100 µM | > 100 µM | > 100 µM | 72.3 µM | > 100 µM | > 100 µM
5 | CC1(C)CCCCCC(O)C(O)CCC(C)(C)C1=O (stereo not given) | > 100 µM | > 100 µM | > 100 µM | > 100 µM | > 100 µM | > 100 µM | > 100 µM | > 100 µM | > 100 µM | > 100 µM
